These compounds were tested on Venturia inaequalis (assay: Venturia test (apple)/protective). Conditions: apple plants, protective spray, active compound concentration of 10 ppm, evaluation 12 days after inoculation.
Type: in vivo
Experimental: Venturia test (apple)/protective
Solvent: 4.7 parts by weight of acetone Emulsifier: 0.3 parts by weight of alkylaryl polyglycol ether
(§1) To produce a suitable preparation of active compound, 1 part by weight of active compound is mixed with the stated amounts of solvent and emulsifier, and the concentrate is diluted with water to the desired concentration.
To test for protective activity, young plants are sprayed with the preparation of active compound to run-off point. After the spray coating has dried on, the plants are inoculated with an aqueous suspension of conidia of the causative organism of apple scab (Venturia inaequalis) and then remain in an incubation cupboard at 20° C. and 100% relative atmospheric humidity for 1 day.
The plants are then placed in a greenhouse at 20° C. and a relative atmospheric humidity of about 70%.
Evaluation is carried out 12 days after the inoculation. 0% means an efficacy corresponding to that of the control, 100% means that no infestation is observed.
In the case of `CN(C)OS(=O)n1c(C#N)nc2cc3c(cc21)OC(F)(F)C(F)(F)O3` (stereo not drawn), the “Efficacy in %, based on the untreated control” value (from here on “Efficacy in %, based”) is reported as 43%.
With `CN(C)S(=O)(=O)n1c(C#N)nc2cc3c(cc21)OC(F)(F)C(F)(F)O3` [comparison substance (A), 2-Cyano-1-dimethylaminosulphonyl-6,6,7,7-tetrafluoro-[1,4]dioxino[2,3-f]benzimidazole] the “Efficacy in %, based” value was 43%.
In the case of `CN(C)OS(=O)n1c(C#N)nc2cc3c(cc21)OC(F)(F)O3` (stereo not drawn) [drawing 350], the “Efficacy in %, based” value is reported as 0%.
With `Cc1noc(C)c1S(=O)(=O)n1c(C#N)nc2cc3c(cc21)OC(F)(F)O3` [drawing 351] the “Efficacy in %, based” value was 81%.
In the case of `Cc1noc(C)c1S(=O)(=O)n1c(C#N)nc2cc3c(cc21)OC(F)(F)C(F)(F)O3` [drawing 352], the “Efficacy in %, based” value is reported as 58%.
With `N#Cc1nc2cc3c(cc2n1S(=O)(=O)c1cccs1)OC(F)(F)C(F)(F)O3` [drawing 353] the “Efficacy in %, based” value was 87%.

What follows are compounds tested on Plasmopara viticola (assay: Plasmopara test (vines)/protective). Conditions: Plasmopara viticola, 144 h, protective spray, active compound concentration of 100 ppm, evaluation 6 days after inoculation, read-out: Efficacy in %, based on the untreated control.
Type: in vivo
Experimental: Plasmopara test (vines)/protective
Solvent: 4.7 parts by weight of acetone Emulsifier: 0.3 parts by weight of alkyl-aryl polyglycol ether
as §1
To test for protective activity, young plants are sprayed with the preparation of active compound to run-off point. After the spray coating has dried on, the plants are inoculated with an aqueous suspension of spores of Plasmopara viticola and then remain in a humidity chamber at 20-22° C. and 100% relative atmospheric humidity for 1 day. The plants are subsequently placed in a greenhouse at 21° C. and 90% atmospheric humidity for […]. The plants are then moistened and placed in a humidity chamber for 1 day.
Evaluation is carried out 6 days after the inoculation. 0% means an efficacy corresponding to that of the control, whereas an efficacy of 100% means that no infestation is observed.
Work on `Cc1noc(C)c1OS(=O)N1C(C#N)=NC2C=C3OC(F)(F)OC3=CC21` (stereo not drawn) yielded a pest or weed control at 100 ppm of 100%.
For `N#Cc1nc2cc3c(cc2n1S(=O)Oc1cccs1)OC(F)(F)C(F)(F)O3` (stereo not drawn), the pest or weed control at 100 ppm was 80%.
`COC(=O)c1sccc1OS(=O)n1c(C#N)nc2cc3c(cc21)OC(F)(F)C(F)(F)O3` (stereo not drawn) was tested, and the pest or weed control at 100 ppm was 100%.
Compound `Cc1noc(C)c1OS(=O)n1c(C#N)nc2cc3c(cc21)OC(F)(F)C(F)(F)O3` (stereo not drawn) [drawing 367] has a pest or weed control at 100 ppm of 100%.
`Cc1oncc1OS(=O)n1c(C#N)nc2cc3c(cc21)OC(F)(F)C(F)(F)O3` (stereo not drawn) [drawing 370] showed a pest or weed control at 100 ppm of 100%.
Compound `Cc1nn(C)c(Cl)c1S(=O)(=O)n1c(C#N)nc2cc3c(cc21)OC(F)(F)C(F)(F)O3` [drawing 371] has a pest or weed control at 100 ppm of 74%.
`Cc1oncc1OS(=O)n1c(C#N)nc2cc3c(cc21)OC(F)(F)O3` (stereo not drawn) [drawing 372] showed a pest or weed control at 100 ppm of 100%.
In the case of `Cc1noc(C)c1S(=O)(=O)n1c(C#N)nc2c(Br)cc(C(F)(F)F)cc21` [drawing 373], the pest or weed control at 100 ppm is reported as 95%.

Same assay, conditions: protective spray, active compound concentration of 100 ppm, evaluation 6 days after inoculation
With `Cc1noc(C)c1OS(=O)n1c(C#N)nc2cc3c(cc21)OC(F)(F)C(F)(F)O3` (stereo not drawn) [drawing 374] the “Efficacy in %, based” value was 100%.

What follows are compounds tested on Phytophthora infestans (assay: whole plant or invertebrate). Conditions: in Solanum lycopersicum, 72 h, read-out: Efficacy in %, based on the untreated control.
Type: in vivo
With `COC(=O)c1sccc1S(=O)(=O)n1c(C#N)nc2cc3c(cc21)OC(F)(F)C(F)(F)O3` the pest or weed control at 100 ppm was 82%.
Compound `Cc1nn(C)c(Cl)c1S(=O)(=O)n1c(C#N)nc2cc3c(cc21)OC(F)(F)O3` has a pest or weed control at 100 ppm of 94%.
`N#Cc1nc2cc3c(cc2n1S(=O)Oc1cccs1)OC(F)(F)O3` (stereo not drawn) gave a pest or weed control at 100 ppm of 94%.
For `COC(=O)c1csc(OS(=O)n2c(C#N)nc3cc4c(cc32)OC(F)(F)O4)c1C` (stereo not drawn), the pest or weed control at 100 ppm was 97%.
With `Cc1noc(C)c1S(=O)(=O)n1c(C#N)nc2cc3c(cc21)OC(F)(F)O3` [drawing 354] the pest or weed control at 100 ppm was 100%.
With `Cc1noc(C)c1S(=O)(=O)n1c(C#N)nc2cc3c(cc21)OC(F)(F)C(F)(F)O3` [drawing 355] the pest or weed control at 100 ppm was 97%.
Work on `N#Cc1nc2cc3c(cc2n1S(=O)(=O)c1cccs1)OC(F)(F)C(F)(F)O3` [drawing 356] yielded a pest or weed control at 100 ppm of 94%.
In the case of `Cc1oncc1OS(=O)n1c(C#N)nc2cc3c(cc21)OC(F)(F)C(F)(F)O3` (stereo not drawn) [drawing 358], the pest or weed control at 100 ppm is reported as 64%.
Work on `Cc1nn(C)c(Cl)c1S(=O)(=O)n1c(C#N)nc2cc3c(cc21)OC(F)(F)C(F)(F)O3` [drawing 359] yielded a pest or weed control at 100 ppm of 94%.
Work on `Cc1oncc1OS(=O)n1c(C#N)nc2cc3c(cc21)OC(F)(F)O3` (stereo not drawn) [drawing 362] yielded a pest or weed control at 100 ppm of 96%.
`Cc1noc(C)c1S(=O)(=O)n1c(C#N)nc2c(Br)cc(C(F)(F)F)cc21` [drawing 363] was tested, and the pest or weed control at 100 ppm was 74%.
Work on `Cc1noc(C)c1OS(=O)n1c(C#N)nc2cc3c(cc21)OC(F)(F)C(F)(F)O3` (stereo not drawn) [drawing 365] yielded a pest or weed control at 100 ppm of 97%.
